# Reference: US5602101A, “Antithrombotic agents” (priority 1994, dated 1997)
# Key:
# human thrombin = target: T1, human thrombin (Homo sapiens, UniProt P00734); test: Inhibition of amidase activity of thrombin (chromogenic substrate), Kass; assay type: biochemical; settings: substrate N-benzoyl-Phe-Val-Arg-p-nitroanilide, pH 7.4
# T1 construct: purified human thrombin Enzyme Research Laboratories, South Bend, Ind; purchased Enzyme Research Laboratories, South Bend, Ind
# Experimental: (§1) The assay is carried out by mixing 50 μl buffer (0.03M Tris, 0.15M NaCl, pH 7.4), 25 μl of human thrombin solution (purified human thrombin Enzyme Research Laboratories, South Bend, Ind.) at 8 NIH units/ml and 25 μl of test compound in a solvent (50% aqueous methanol (v:v)). Then 150 μl of an aqueous solution of the chromogenic substrate (at 0.25 mg/ml) are added and the rates of hydrolysis of the substrate are measured by monitoring the reactions at 405 nm for the release of p-nitroaniline. Standard curves are constructed by plotting free thrombin concentration against hydrolysis rate. The hydrolysis rates observed with test compounds are then converted to "free thrombin" values in the respective assays by use of the standard curves. The bound thrombin (bound to test compound) is calculated by subtracting the amount of free thrombin observed in each assay from the known initial amount of thrombin used in the assay. The amount of free inhibitor in each assay is calculated by subtracting the number of moles of bound thrombin from the number of moles of added inhibitor (test compound).
# The Kass value is the hypothetical equilibrium constant for the reaction between thrombin and the test compound (I). [drawing 53]
# (§2) Kass is calculated for a range of concentrations of test compounds and the mean value is reported in units of liter per mole.
# factor Xa = target: T2, factor Xa (Homo sapiens, UniProt P00742); test: Serine protease inhibition, factor Xa (chromogenic substrate), Kass; assay type: biochemical; settings: substrate N-Benzoyl-Ile-Glu-Gly-Arg-p-nitroanilide
# T2 construct: Human factors X, Xa, IXa, XIa, and xIIa are purchased from Enzyme Research Laboratories; purchased Enzyme Research Laboratories, South Bend, Ind
# Experimental: as §1, §2
# (§3) By substantially following the procedures described above for human thrombin, and using other human blood coagulation system serine proteases, and using fibrinolytic system serine proteases, with the appropriate chromogenic substrate, identified below, selectivity of the compounds of the present invention with respect to the coagulation factor serine proteases and to the fibrinolytic serine proteases are evaluated as well as their substantial lack of interference with human plasma clot fibrinolysis.
# (§4) Human factors X, Xa, IXa, XIa, and xIIa are purchased from Enzyme Research Laboratories, South Bend, Ind.; human urokinase from Leo Pharmaceuticals, Denmark; and recombinant activated Protein C (aPC) is prepared at Eli Lilly and Co. substantially according to U.S. Pat. No. 4,981,952 incorporated by reference herein in its entirety. Chromogenic substrates: N-Benzoyl-Ile-Glu-Gly-Arg-p-nitroanilide (for factor Xa); N-Cbz-D-Arg-Gly-Arg-p-nitroanilide (for factor IXa assay as the factor Xa substrate) pyroglutamyl-Pro-Arg-p-nitroanilide (for factor XIa and for aPC); H-D-Pro-Phe-Arg-p-nitroanilide (for factor XIIa); and pyroglutamyl-Gly-Arg-p-nitroanilide (for urokinase); are purchased from KabiVitrum, Stockholm, Sweden, or from Midwest Biotech, Fishers, Indiana. Bovine trypsin is purchased from Worthington Biochemicals, Freehold, N.J., and human plasma kallikrein from Kabi Vitrum, Stockholm, Sweden. N-Benzoyl-Phe-Val-Arg-p-nitroanilide, the substrate for human thrombin and for trypsin, is synthesized according to procedures described above for the compounds of the present invention, known methods of peptide coupling from commercially available reactants, or was purchased from Midwest Biotech, Fishers, Ind. Human plasmin is purchased from Boehringer Mannheim, Indianapolis, Ind.; nt-PA is purchased as single chain activity reference from American Diagnostics, Greenwich, Conn.; modified-t-PA6 (mt-PA6) is prepared at Eli Lilly and Company by procedure known in the art (See, Burck, et al., J. Biol. Chem., 265, […] (1990). Plasmin chromogenic substrate H-D-Val-Leu-Lys-p-nitroanilide and tissue plasminegen activator (t-PA) substrate H-D-Ile-Pro-Arg-p-nitroanilide are purchased from Kabi Vitrum, Stockholm, Sweden.
# Bovine trypsin = target: T3, Bovine trypsin (Bos taurus, UniProt P00760); test: Serine protease inhibition, trypsin (chromogenic substrate), Kass; assay type: biochemical; settings: substrate N-Benzoyl-Phe-Val-Arg-p-nitroanilide
# T3 construct: Bovine trypsin is purchased from Worthington Biochemicals, Freehold, N.J; purchased Worthington Biochemicals, Freehold, N.J
# T3 sequence (P00760 24-246): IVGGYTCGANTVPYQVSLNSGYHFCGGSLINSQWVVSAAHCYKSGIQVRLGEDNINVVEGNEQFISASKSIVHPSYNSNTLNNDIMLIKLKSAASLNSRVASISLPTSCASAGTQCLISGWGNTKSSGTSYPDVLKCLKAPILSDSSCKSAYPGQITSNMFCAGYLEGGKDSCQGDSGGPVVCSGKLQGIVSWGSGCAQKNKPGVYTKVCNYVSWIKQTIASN
# Experimental: as §1, §2, §3, §4
# Human plasmin = target: T4, Human plasmin (Homo sapiens, UniProt P00747); test: Serine protease inhibition, plasmin (chromogenic substrate), Kass; assay type: biochemical; settings: substrate H-D-Val-Leu-Lys-p-nitroanilide
# T4 construct: Human plasmin is purchased from Boehringer Mannheim, Indianapolis, Ind; purchased Boehringer Mannheim, Indianapolis, Ind
# Experimental: as §1, §2, §3, §4
# [1] = target: T5, tissue plasminogen activator (t-PA) (Homo sapiens, UniProt P00750); test: Serine protease inhibition, t-PA (chromogenic substrate), Kass; assay type: biochemical; settings: for Enzyme Kass, t-Pa: substrate H-D-Ile-Pro-Arg-p-nitroanilide
# T5 construct: purchased American Diagnostics, Greenwich, Conn
# Experimental: as §1, §2, §3, §4
# Human Plasma [2] = test: Anticoagulation in human plasma, thrombin time (TT); assay type: biochemical; settings: concentration required to double the thrombin time
# Experimental: (§5) Dog plasma and rat plasma are obtained from conscious mixed-breed hounds (either sex, Hazelton-LRE, Kalamazoo, Mich., U.S.A.) or from anesthetized male Sprague-Dawley rats (Harlan Sprague-Dawley, Inc., Indianapolis, Ind., U.S.A.) by venipuncture into 3.8 percent citrate. Fibrinogen is prepared from in-date ACD human blood as the fraction I-2 according to previous procedures and specifications. Smith, Biochem. Chem. […] Human fibrinogen is also purchased as 98 percent pure/plasmin free from American Diagnostics, Greenwich, Conn. Coagulation reagents ACTIN, Thromboplastin, and Human plasma are from Baxter Healthcare Corp., Dade Division, Miami, Fla. Bovine thrombin from Parke-Davis (Ann Arbor, Mich.) is used for coagulation assays in plasma. Coagulation assay procedures are as previously described. Smith, et al., Thrombosis Research, 5, 163-174 (1988). A CoAScreener coagulation instrument (American LABor, Inc.) is used for all coagulation assay measurements. The prothrombin time (PT) is measured by adding 0.05 ml saline and 0.05 ml Thromboplastin-C reagent to 0.05 ml test plasma. The activated partial thromboplastin time (APTT) is measured by incubation of 0.05 ml test plasma with 0.05 ml Actin reagent for 120 seconds followed by 0.05 ml CaCl2 (0.02M). […] The compounds of formula I are added to human or animal plasma over a wide range of concentrations to determine prolongation effects on the APTT, PT, and TT assays. Linear extrapolations are performed to estimate the concentrations required to double the clotting time for each assay.
# Human Plasma [3] = test: Anticoagulation in human plasma, activated partial thromboplastin time (APTT); assay type: biochemical; settings: concentration required to double the APTT
# Experimental: as §5
# Human Plasma [4] = test: Anticoagulation in human plasma, prothrombin time (PT); assay type: biochemical; settings: concentration required to double the PT
# Experimental: as §5
# [5] = Index of bioavailability (plasma TT AUC, p.o. vs i.v.); settings: rats, adjusted for dose
# Experimental: Male Sprague Dawley rats (350-425 gm, Harlan Sprague Dawley Inc., Indianapolis, Ind.) are anesthetized with xylazine (20 mg/kg, s.c.) and ketamine (120 mg/kg, s.c.) and maintained on a heated water blanket (37° C.). The jugular vein(s) is cannulated to allow for infusions.
# Plasma thrombin time (TT) and activated partial thromboplastin time (APTT) are measured with a fibrometer. Blood is sampled from a jugular catheter and collected in syringe containing sodium citrate (3.8%, 1 part to 9 parts blood). To measure TT, rat plasma (0.1 ml) is mixed with saline (0.1 ml) and bovine thrombin (0.1 ml, 30 U/ml in TRIS buffer; Parke Davis) at 37° C. For APTT, plasma (0.1 ml) and APTT solution (0.1 ml, Organon Teknika are incubated for 5 minutes (37° C.) and CaCl2 (0.01 ml, 0,025M) is added to start coagulation. Assays are done in duplicate and averaged.
# The time course of the effect of the thrombin inhibitor upon TT is determined after i.v bolus administration to anesthetized rats and after oral treatment of fasted conscious rats. Due to limitations of blood volume and the number of points required to determine the time course from time of treatment to the time when the response returns to pretreatment values, two populations of rats are used. Each sample population represents alternating sequential time points. The average TT over the time course is used to calculate area under the curve (AUC). The index of bioavailability is calculated by the formula shown below and is expressed as percent relative activity.
# The area under the curve (AUC) of the plasma TT time course is determined and adjusted for the dose. This index of bioavailability is termed "% Relative Activity" and is calculated as [formula]
# Compound solutions are prepared fresh daily in normal saline and are injected as a bolus or are infused starting 15 min before and continuing throughout the experimental perturbation which is 15 minutes in the arteriovenous shunt model and 60 minutes in the FeCl3 model of arterial injury and in the spontaneous thrombolysis model. Bolus injection volume is 1 ml/kg for i.v., and 5 ml/kg for p.o. and infusion volume is 3 ml/hr.
# T5 sequence (P00750 36-562): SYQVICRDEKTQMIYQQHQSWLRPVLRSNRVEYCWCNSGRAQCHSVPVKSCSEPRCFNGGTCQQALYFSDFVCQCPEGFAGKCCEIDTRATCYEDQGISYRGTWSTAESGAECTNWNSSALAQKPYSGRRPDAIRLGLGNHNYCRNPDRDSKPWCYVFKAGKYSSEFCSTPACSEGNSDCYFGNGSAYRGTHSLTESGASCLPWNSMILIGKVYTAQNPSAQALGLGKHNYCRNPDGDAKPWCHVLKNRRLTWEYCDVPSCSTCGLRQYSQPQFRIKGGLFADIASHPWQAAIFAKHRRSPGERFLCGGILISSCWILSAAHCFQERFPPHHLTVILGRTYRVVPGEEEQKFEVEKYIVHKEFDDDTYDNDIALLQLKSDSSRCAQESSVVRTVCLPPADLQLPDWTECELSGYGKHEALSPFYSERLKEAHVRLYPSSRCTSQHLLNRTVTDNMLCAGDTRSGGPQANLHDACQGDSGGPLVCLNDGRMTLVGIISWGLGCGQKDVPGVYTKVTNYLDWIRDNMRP
# T4 sequence (P00747 581-810 limits assumed): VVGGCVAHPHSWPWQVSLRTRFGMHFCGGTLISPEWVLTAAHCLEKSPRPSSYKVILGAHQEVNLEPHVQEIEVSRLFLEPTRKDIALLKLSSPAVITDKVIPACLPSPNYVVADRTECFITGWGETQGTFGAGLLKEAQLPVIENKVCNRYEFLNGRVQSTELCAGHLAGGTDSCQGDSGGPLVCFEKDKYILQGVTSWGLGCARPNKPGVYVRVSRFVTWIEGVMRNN
# T4 sequence (P00747 97-580 partner limits assumed): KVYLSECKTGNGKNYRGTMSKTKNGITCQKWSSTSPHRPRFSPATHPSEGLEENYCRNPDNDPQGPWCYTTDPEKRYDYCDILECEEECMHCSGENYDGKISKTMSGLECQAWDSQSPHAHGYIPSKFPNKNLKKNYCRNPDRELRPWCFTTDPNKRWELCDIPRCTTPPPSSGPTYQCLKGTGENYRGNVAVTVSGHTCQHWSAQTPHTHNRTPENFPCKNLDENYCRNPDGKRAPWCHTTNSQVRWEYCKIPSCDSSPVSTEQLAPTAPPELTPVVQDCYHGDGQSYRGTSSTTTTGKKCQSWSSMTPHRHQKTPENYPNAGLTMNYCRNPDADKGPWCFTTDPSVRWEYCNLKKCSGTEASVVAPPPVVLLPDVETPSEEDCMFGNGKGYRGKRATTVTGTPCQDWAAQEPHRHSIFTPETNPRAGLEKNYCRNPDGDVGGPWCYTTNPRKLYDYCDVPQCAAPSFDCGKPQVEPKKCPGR
# T2 sequence (P00742 235-488 limits assumed): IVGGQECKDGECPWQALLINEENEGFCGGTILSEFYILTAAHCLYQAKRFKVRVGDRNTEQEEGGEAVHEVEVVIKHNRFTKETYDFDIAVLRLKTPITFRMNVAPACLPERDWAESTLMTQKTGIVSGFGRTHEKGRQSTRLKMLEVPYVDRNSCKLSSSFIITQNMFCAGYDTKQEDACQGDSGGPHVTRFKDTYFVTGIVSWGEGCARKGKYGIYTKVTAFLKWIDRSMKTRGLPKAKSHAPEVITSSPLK
# T2 sequence (P00742 41-179 partner limits assumed): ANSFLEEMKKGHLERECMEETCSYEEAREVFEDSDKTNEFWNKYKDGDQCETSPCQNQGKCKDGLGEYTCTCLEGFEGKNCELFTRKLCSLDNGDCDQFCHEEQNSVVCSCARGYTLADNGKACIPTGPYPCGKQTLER
Structure (SMILES),"Enzyme Kass, Human Thrombin (human thrombin)","Enzyme Kass, Xa (factor Xa)","Enzyme Kass, Trypsin (Bovine trypsin)","Enzyme Kass, Plasmin (Human plasmin)","Enzyme Kass, t-Pa [1]","2 × Clotting time, TT (Human Plasma [2])","2 × Clotting time, APTT (Human Plasma [3])","2 × Clotting time, PT (Human Plasma [4])","Index of Bioavailability, % Relative Activity [5]",t-Pa inhibition ([1]; at 13 μg/mL)
"CCS(=O)(=O)N[C@H](Cc1ccccc1)C(=O)N1CCC[C@H]1C(=O)N[C@H](C=O)CCCNC(=N)N.Cl [Example 8, EtSO2 -D-Phe-Pro-Arg-H-HCl]",450 L/mol × 10^6,2.6 L/mol × 10^6,260 L/mol × 10^6,31 L/mol × 10^6,2.9 L/mol × 10^6,9 ng/mL,260 ng/mL,660 ng/mL,31%,–
"CCCS(=O)(=O)N[C@H](Cc1ccccc1)C(=O)N1CCC[C@H]1C(=O)N[C@H](C=O)CCCNC(=N)N.Cl [Example 9, n-Pr-SO2 -D-Phe-Pro-Arg-H.HCl]","1,700 L/mol × 10^6",13 L/mol × 10^6,480 L/mol × 10^6,29 L/mol × 10^6,2.8 L/mol × 10^6,6 ng/mL,220 ng/mL,510 ng/mL,14%,–
"CCCCS(=O)(=O)N[C@H](Cc1ccccc1)C(=O)N1CCC[C@H]1C(=O)N[C@H](C=O)CCCNC(=N)N.Cl [Example 10, n-Bu-SO2 -D-Phe-Pro-Arg-H.HCl]",470 L/mol × 10^6,8.3 L/mol × 10^6,230 L/mol × 10^6,27 L/mol × 10^6,0.83 L/mol × 10^6,18 ng/mL,300 ng/mL,700 ng/mL,18%,–
"CC(C)S(=O)(=O)N[C@H](Cc1ccccc1)C(=O)N1CCC[C@H]1C(=O)N[C@H](C=O)CCCNC(=N)N.Cl [Example 11, i-Pr-SO2 -D-Phe-Pro-Arg-H-HCl]",460 L/mol × 10^6,6.0 L/mol × 10^6,260 L/mol × 10^6,25 L/mol × 10^6,3.5 L/mol × 10^6,13 ng/mL,270 ng/mL,510 ng/mL,10%,–
"CN(C)S(=O)(=O)N[C@H](Cc1ccccc1)C(=O)N1CCC[C@H]1C(=O)N[C@H](C=O)CCCNC(=N)N.Cl [Example 12, Me2 NSO2 -D-Phe-Pro-Arg-H.HCl]",300 L/mol × 10^6,3.9 L/mol × 10^6,160 L/mol × 10^6,21 L/mol × 10^6,–,46 ng/mL,360 ng/mL,480 ng/mL,26%,100%
